Reference: the NIST ThermoML archive (doi:10.1021/acs.jced.5b00813)
± gives the expanded uncertainty stated by the source.

Columns and labels:
[1] = excess molar enthalpy (molar enthalpy of mixing); xn = mol fraction of the nth substance listed; settings: 298.15 K, 100 kPa, Liquid, Calvet calorimetry
[2] = xn = mol fraction of the nth substance listed; settings: 298.15 K, 100 kPa, Liquid, Vibrating tube method
[3] = 298.15 K; 100 kPa; Liquid; Vibrating tube method
[4] = refractive index (Na D-line) (dimensionless); settings: 298.15 K; 101.33 kPa; Liquid; Standard Abbe refractometry

CCCCC(=O)OC [methyl pentanoate] + CCCCCCCC
excess molar enthalpy ([1]; x2 = 0.0427): 0.0387 ± 0.000956 kcal/mol | excess molar enthalpy ([1]; x2 = 0.0951): 0.0805 ± 0.00191 kcal/mol | excess molar enthalpy ([1]; x2 = 0.1523): 0.122 ± 0.00263 kcal/mol | excess molar enthalpy ([1]; x2 = 0.2098): 0.158 ± 0.00335 kcal/mol | excess molar enthalpy ([1]; x2 = 0.2677): 0.187 ± 0.00406 kcal/mol | excess molar enthalpy ([1]; x2 = 0.3234): 0.211 ± 0.00454 kcal/mol | excess molar enthalpy ([1]; x2 = 0.377): 0.228 ± 0.00502 kcal/mol | excess molar enthalpy ([1]; x2 = 0.4266): 0.24 ± 0.00526 kcal/mol | excess molar enthalpy ([1]; x2 = 0.4619): 0.249 ± 0.00526 kcal/mol | excess molar enthalpy ([1]; x2 = 0.4695): 0.249 ± 0.00526 kcal/mol | excess molar enthalpy ([1]; x2 = 0.5113): 0.252 ± 0.0055 kcal/mol | excess molar enthalpy ([1]; x2 = 0.5126): 0.25 ± 0.0055 kcal/mol | excess molar enthalpy ([1]; x2 = 0.5411): 0.249 ± 0.00526 kcal/mol | excess molar enthalpy ([1]; x2 = 0.5701): 0.248 ± 0.00526 kcal/mol | excess molar enthalpy ([1]; x2 = 0.6364): 0.236 ± 0.00502 kcal/mol | excess molar enthalpy ([1]; x2 = 0.709): 0.212 ± 0.00454 kcal/mol | excess molar enthalpy ([1]; x2 = 0.7745): 0.181 ± 0.00382 kcal/mol | excess molar enthalpy ([1]; x2 = 0.8541): 0.131 ± 0.00287 kcal/mol | excess molar enthalpy ([1]; x2 = 0.9325): 0.0547 ± 0.0012 kcal/mol | mass density ([2]; x2 = 0): 884.84 ± 1 kg/m3 | mass density ([2]; x2 = 0.0514): 872.35 ± 1 kg/m3 | mass density ([2]; x2 = 0.1005): 860.71 ± 1 kg/m3 | mass density ([2]; x2 = 0.161): 846.85 ± 1 kg/m3 | mass density ([2]; x2 = 0.2134): 835.46 ± 1 kg/m3 | mass density ([2]; x2 = 0.2601): 825.47 ± 1 kg/m3 | mass density ([2]; x2 = 0.3084): 815.53 ± 1 kg/m3 | mass density ([2]; x2 = 0.3625): 804.47 ± 1 kg/m3 | mass density ([2]; x2 = 0.4427): 788.93 ± 1 kg/m3 | mass density ([2]; x2 = 0.4558): 786.45 ± 1 kg/m3 | mass density ([2]; x2 = 0.5104): 776.34 ± 1 kg/m3 | mass density ([2]; x2 = 0.5504): 769.1 ± 1 kg/m3 | mass density ([2]; x2 = 0.6116): 758.45 ± 1 kg/m3 | mass density ([2]; x2 = 0.6541): 751.22 ± 1 kg/m3 | mass density ([2]; x2 = 0.7081): 742.25 ± 1 kg/m3 | mass density ([2]; x2 = 0.7535): 734.86 ± 1 kg/m3 | mass density ([2]; x2 = 0.8013): 727.38 ± 1 kg/m3 | mass density ([2]; x2 = 0.8518): 719.71 ± 1 kg/m3 | mass density ([2]; x2 = 0.9059): 711.73 ± 1 kg/m3 | mass density ([2]; x2 = 0.9521): 705.03 ± 1 kg/m3

CCCCC(=O)OC [methyl pentanoate] + COC(C)=O
excess molar enthalpy ([1]; x1 = 0.0539): 0.012 ± 0.000478 kcal/mol | excess molar enthalpy ([1]; x1 = 0.113): 0.0229 ± 0.000478 kcal/mol | excess molar enthalpy ([1]; x1 = 0.1716): 0.0323 ± 0.000717 kcal/mol | excess molar enthalpy ([1]; x1 = 0.2347): 0.0413 ± 0.000956 kcal/mol | excess molar enthalpy ([1]; x1 = 0.2915): 0.0473 ± 0.0012 kcal/mol | excess molar enthalpy ([1]; x1 = 0.344): 0.0521 ± 0.0012 kcal/mol | excess molar enthalpy ([1]; x1 = 0.3954): 0.0552 ± 0.0012 kcal/mol | excess molar enthalpy ([1]; x1 = 0.4441): 0.0571 ± 0.0012 kcal/mol | excess molar enthalpy ([1]; x1 = 0.5055): 0.0569 ± 0.0012 kcal/mol | excess molar enthalpy ([1]; x1 = 0.5754): 0.0545 ± 0.0012 kcal/mol | excess molar enthalpy ([1]; x1 = 0.6517): 0.0507 ± 0.0012 kcal/mol | excess molar enthalpy ([1]; x1 = 0.7339): 0.0425 ± 0.000956 kcal/mol | excess molar enthalpy ([1]; x1 = 0.8188): 0.0301 ± 0.000717 kcal/mol | excess molar enthalpy ([1]; x1 = 0.9036): 0.0179 ± 0.000478 kcal/mol | mass density ([2]; x1 = 0.0496): 922.92 ± 1 kg/m3 | mass density ([2]; x1 = 0.1001): 919.44 ± 1 kg/m3 | mass density ([2]; x1 = 0.1536): 916.04 ± 1 kg/m3 | mass density ([2]; x1 = 0.2027): 913.18 ± 1 kg/m3 | mass density ([2]; x1 = 0.2511): 910.53 ± 1 kg/m3 | mass density ([2]; x1 = 0.3522): 905.55 ± 1 kg/m3 | mass density ([2]; x1 = 0.4013): 903.35 ± 1 kg/m3 | mass density ([2]; x1 = 0.4497): 901.35 ± 1 kg/m3 | mass density ([2]; x1 = 0.4935): 899.62 ± 1 kg/m3 | mass density ([2]; x1 = 0.5444): 897.75 ± 1 kg/m3 | mass density ([2]; x1 = 0.5935): 896.01 ± 1 kg/m3 | mass density ([2]; x1 = 0.6563): 893.98 ± 1 kg/m3 | mass density ([2]; x1 = 0.7383): 891.47 ± 1 kg/m3 | mass density ([2]; x1 = 0.7902): 890.02 ± 1 kg/m3 | mass density ([2]; x1 = 0.843): 888.62 ± 1 kg/m3 | mass density ([2]; x1 = 0.8918): 887.4 ± 1 kg/m3 | mass density ([2]; x1 = 0.9372): 886.3 ± 1 kg/m3 | mass density ([2]; x1 = 1): 884.84 ± 1 kg/m3

CCCCCCCC [octane]
mass density [3]: 698.58 ± 1 kg/m3 | refractive index [4]: 1.3952 ± 0.0005

CCCCCCCC [octane] + CCCC(=O)OC
mass density ([2]; x1 = 1): 698.58 ± 1 kg/m3

CCCCCCCC [octane] + CCCCC(=O)OC
mass density ([2]; x1 = 1): 698.58 ± 1 kg/m3

CCCCCCCC [octane] + COC(C)=O
mass density ([2]; x1 = 1): 698.58 ± 1 kg/m3
